5 compounds from patent publication US9708314B2, “Heterocyclic amide compound” (NISSAN CHEMICAL INDUSTRIES, LTD., priority 2013, dated 2017) can be followed below.

What all share (assay type): in vivo
One assay has as its system Abutilon theophrasti. In words: Test Example 4: herbicidal effect by application to foliage (diluvial soil, plastic box). To be noted: for M: herbicidal effect on Abutilon theophrasti: application to foliage, application herbicide amount 320 g/ha; for M (Abutilon theophrasti) herbicidal effect grade: Application herbicide amount 320 g/ha, foliage application. Summed up: (§1)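 Emulsion-formulated compound, diluted to a predetermined g/ha dose, applied by small sprayer to leaves and stems of 14-day-old seedlings grown in sterilized diluvial soil. Effect rated on 0–5 herbicidal-ratio scale three weeks on.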

The subject of a further assay is Alopecurus myosuroides. Described as above. The conditions noted are these: for J: herbicidal effect on Alopecurus myosuroides: application to foliage, application herbicide amount 320 g/ha; for J (Alopecurus myosuroides) herbicidal effect grade: Application herbicide amount 320 g/ha, foliage application. The essentials: as §1
A further assay has as its system Amaranthus retroflexus. Described as above. The conditions noted are these: for N: herbicidal effect on Amaranthus retroflexus: application to foliage, application herbicide amount 320 g/ha; for N (Amaranthus retroflexus) herbicidal effect grade: Application herbicide amount 320 g/ha, foliage application. The essentials:
as §1

The next assay concerns Apera spica-venti. The assay is described as above. To be noted: for L: herbicidal effect on Apera spica-venti.: application to foliage, application herbicide amount 320 g/ha; for L (Apera spica-venti.) herbicidal effect grade: Application herbicide amount 320 g/ha, foliage application. The essentials: as §1
The next assay concerns Avena fatua. The description is as above. To be noted: for I: herbicidal effect on Avena fatua: application to foliage, application herbicide amount 320 g/ha; for I (Avena fatua) herbicidal effect grade: Application herbicide amount 320 g/ha, foliage application. Summed up: as §1
The subject of another assay is Chenopodium album. The description is as above. The conditions noted are these: for O: herbicidal effect on Chenopodium album: application to foliage, application herbicide amount 320 g/ha; for O (Chenopodium album) herbicidal effect grade: Application herbicide amount 320 g/ha, foliage application. The essentials: as §1
The test system of a further assay is Digitaria ciliaris. Described as above. To be noted: for F: herbicidal effect on Digitaria ciliaris: application to foliage, application herbicide amount 320 g/ha; for F (Digitaria ciliaris) herbicidal effect grade: Application herbicide amount 320 g/ha, foliage application. Summed up: as §1
Assay [1] concerns Echinochloa crus-galli var. crus-galli. The description is as above. To be noted: for H: herbicidal effect on Echinochloa crus-galli var. crus-galli: application to foliage, application herbicide amount 320 g/ha; for H (Echinochloa crus-galli var. crus-galli) herbicidal effect grade: Application herbicide amount 320 g/ha, foliage application. Summed up:
as §1

The next assay relates to Galium spurium. The description is as above. The conditions noted are these: for Q: herbicidal effect on Galium spurium: application to foliage, application herbicide amount 320 g/ha; for Q (Galium spurium) herbicidal effect grade: Application herbicide amount 320 g/ha, foliage application. Summed up: as §1
The next assay concerns Lolium multiflorum Lam. The description is as above. To be noted: for K: herbicidal effect on Lolium multiflorum Lam.: application to foliage, application herbicide amount 320 g/ha; for K (Lolium multiflorum Lam.) herbicidal effect grade: Application herbicide amount 320 g/ha, foliage application. The essentials:
as §1

The test system of a further assay is Setaria viridis. Described as above. To be noted: for G: herbicidal effect on Setaria viridis: application to foliage, application herbicide amount 320 g/ha; for G (Setaria viridis) herbicidal effect grade: Application herbicide amount 320 g/ha, foliage application. Summed up:
as §1

The test system of a further assay is Veronica persica. The assay is described as above. To be noted: for R: herbicidal effect on Veronica persica: application to foliage, application herbicide amount 320 g/ha; for R (Veronica persica) herbicidal effect grade: Application herbicide amount 320 g/ha, foliage application. The essentials:
as §1

Assay [2] relates to Echinochloa oryzacola Vasing. In words: Test Example 2: herbicidal activity, application during weed generation in submerged conditions. The conditions noted are these: Eighteenth Table; application herbicide amount 320 g/ha. Summed up:
(§2)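 Post-emergence application under submerged conditions: water-diluted emulsion dosed onto the water surface (g/ha) when weeds reach one- to two-leaf stage. Soil flooded to 4 cm; greenhouse 25–30 °C. Herbicidal ratio graded in six classes, 0 (≤5%) to 5 (≥90%), at three weeks.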

The test system of a further assay is Scirpus juncoides. The description is as above. The conditions noted are these: Eighteenth Table; application herbicide amount 320 g/ha. The essentials: as §2

Consider `COc1ccc(CN(C)c2nnc3c(C(=O)Nc4nnc(C)o4)ccc(C(F)(F)F)n23)cc1` [1-167], for which, in the assay with Abutilon theophrasti, the “M: herbicidal effect on Abutilon theophrasti” value was 2 (Herbicidal ratio of 20% or more and less than 40%). Further, the “J: herbicidal effect on Alopecurus myosuroides” value in the assay on Alopecurus myosuroides was 0 (Herbicidal ratio of 5% or less (almost no effect)). The “N: herbicidal effect on Amaranthus retroflexus” value in the assay with Amaranthus retroflexus is 2 (Herbicidal ratio of 20% or more and less than 40%). Further, the “L: herbicidal effect on Apera spica-venti.” value with Apera spica-venti. was 1 (Herbicidal ratio of 5% or more and less than 20%). For the same compound, the “I: herbicidal effect on Avena fatua” value in the assay on Avena fatua was 1 (Herbicidal ratio of 5% or more and less than 20%). For the same compound, the “O: herbicidal effect on Chenopodium album” value in the assay with Chenopodium album is listed as 5 (Herbicidal ratio of 90% or more (almost completely withered)). Moreover, the “F: herbicidal effect on Digitaria ciliaris” value in the assay on Digitaria ciliaris was 0 (Herbicidal ratio of 5% or less (almost no effect)). The “H: herbicidal effect on Echinochloa crus-galli var. crus-galli” value in assay [1] was 2 (Herbicidal ratio of 20% or more and less than 40%). The “Q: herbicidal effect on Galium spurium” value in the assay with Galium spurium is 2 (Herbicidal ratio of 20% or more and less than 40%). Further, the “K: herbicidal effect on Lolium multiflorum Lam.” value in the assay with Lolium multiflorum Lam. was 1 (Herbicidal ratio of 5% or more and less than 20%). Moreover, the “G: herbicidal effect on Setaria viridis” value in the assay with Setaria viridis is 0 (Herbicidal ratio of 5% or less (almost no effect)). Moreover, in the assay on Veronica persica, the “R: herbicidal effect on Veronica persica” value is 4 (Herbicidal ratio of 70% or more and less than 90%).
Regarding `COc1ccc(N(C)c2nnc3c(C(=O)Nc4nnc(C)o4)ccc(C(F)(F)F)n23)cc1` [1-165], the “A (Echinochloa oryzicola Vasing.) herbicidal ratio grade” value in assay [2] is 2 (Herbicidal ratio of 20% or more and less than 40%). Further, the “B (Scirpus juncoides) herbicidal ratio grade” value in the assay with Scirpus juncoides was 2 (Herbicidal ratio of 20% or more and less than 40%). Also, the “M: herbicidal effect on Abutilon theophrasti” value in the assay on Abutilon theophrasti was 3 (Herbicidal ratio of 40% or more and less than 70%). Further, the “J: herbicidal effect on Alopecurus myosuroides” value in the assay with Alopecurus myosuroides was 0 (Herbicidal ratio of 5% or less (almost no effect)). The “N: herbicidal effect on Amaranthus retroflexus” value in the assay on Amaranthus retroflexus is 4 (Herbicidal ratio of 70% or more and less than 90%). Moreover, the “L: herbicidal effect on Apera spica-venti.” value in the assay with Apera spica-venti. is 2 (Herbicidal ratio of 20% or more and less than 40%). In addition, the “I: herbicidal effect on Avena fatua” value with Avena fatua is reported as 0 (Herbicidal ratio of 5% or less (almost no effect)). In addition, the “O: herbicidal effect on Chenopodium album” value in the assay on Chenopodium album is 5 (Herbicidal ratio of 90% or more (almost completely withered)). In the assay with Digitaria ciliaris, the “F: herbicidal effect on Digitaria ciliaris” value was 3 (Herbicidal ratio of 40% or more and less than 70%). Further, in assay [1], the “H: herbicidal effect on Echinochloa crus-galli var. crus-galli” value is 4 (Herbicidal ratio of 70% or more and less than 90%). The “Q: herbicidal effect on Galium spurium” value with Galium spurium was 2 (Herbicidal ratio of 20% or more and less than 40%). In addition, in the assay on Lolium multiflorum Lam., the “K: herbicidal effect on Lolium multiflorum Lam.” value is given as 0 (Herbicidal ratio of 5% or less (almost no effect)). Besides, in the assay with Setaria viridis, the “G: herbicidal effect on Setaria viridis” value is 1 (Herbicidal ratio of 5% or more and less than 20%). In addition, the “R: herbicidal effect on Veronica persica” value in the assay on Veronica persica is 4 (Herbicidal ratio of 70% or more and less than 90%).
With `CC(C)c1nnc2c(C(=O)Nc3nnc(C[S+](C)[O-])o3)ccc(C(F)(F)F)n12` (stereo not shown) [1-143], the “M (Abutilon theophrasti) herbicidal effect grade” value in the assay on Abutilon theophrasti was 2 (Herbicidal ratio of 20% or more and less than 40%). Besides, in the assay with Alopecurus myosuroides, the “J (Alopecurus myosuroides) herbicidal effect grade” value was 0 (Herbicidal ratio of 5% or less (almost no effect)). Further, the “N (Amaranthus retroflexus) herbicidal effect grade” value in the assay with Amaranthus retroflexus is 2 (Herbicidal ratio of 20% or more and less than 40%). Besides, in the assay with Apera spica-venti., the “L (Apera spica-venti.) herbicidal effect grade” value is reported as 0 (Herbicidal ratio of 5% or less (almost no effect)). The “I (Avena fatua) herbicidal effect grade” value with Avena fatua is 0 (Herbicidal ratio of 5% or less (almost no effect)). Moreover, the “O (Chenopodium album) herbicidal effect grade” value in the assay on Chenopodium album was 4 (Herbicidal ratio of 70% or more and less than 90%). For the same compound, in the assay on Digitaria ciliaris, the “F (Digitaria ciliaris) herbicidal effect grade” value is 2 (Herbicidal ratio of 20% or more and less than 40%). Further, in [1], the “H (Echinochloa crus-galli var. crus-galli) herbicidal effect grade” value was 4 (Herbicidal ratio of 70% or more and less than 90%). In addition, the “Q (Galium spurium) herbicidal effect grade” value with Galium spurium was 2 (Herbicidal ratio of 20% or more and less than 40%). In addition, the “K (Lolium multiflorum Lam.) herbicidal effect grade” value in the assay with Lolium multiflorum Lam. was 0 (Herbicidal ratio of 5% or less (almost no effect)). The “G (Setaria viridis) herbicidal effect grade” value in the assay on Setaria viridis is 0 (Herbicidal ratio of 5% or less (almost no effect)). Moreover, the “R (Veronica persica) herbicidal effect grade” value in the assay with Veronica persica was 3 (Herbicidal ratio of 40% or more and less than 70%).
As to `Cc1nnc(NC(=O)c2ccc(C(F)(F)F)n3c(SCC4CC4)nnc23)o1` [1-115], in assay [2], the “A (Echinochloa oryzicola Vasing.) herbicidal ratio grade” value was 3 (Herbicidal ratio of 40% or more and less than 70%). Besides, in the assay with Scirpus juncoides, the “B (Scirpus juncoides) herbicidal ratio grade” value was 3 (Herbicidal ratio of 40% or more and less than 70%). Besides, the “M (Abutilon theophrasti) herbicidal effect grade” value in the assay with Abutilon theophrasti is 3 (Herbicidal ratio of 40% or more and less than 70%). In the assay on Alopecurus myosuroides, the “J (Alopecurus myosuroides) herbicidal effect grade” value was 2 (Herbicidal ratio of 20% or more and less than 40%). Also, the “N (Amaranthus retroflexus) herbicidal effect grade” value in the assay with Amaranthus retroflexus is 4 (Herbicidal ratio of 70% or more and less than 90%). Further, in the assay with Apera spica-venti., the “L (Apera spica-venti.) herbicidal effect grade” value is 2 (Herbicidal ratio of 20% or more and less than 40%). Besides, in the assay on Avena fatua, the “I (Avena fatua) herbicidal effect grade” value is 2 (Herbicidal ratio of 20% or more and less than 40%). For the same compound, in the assay with Chenopodium album, the “O (Chenopodium album) herbicidal effect grade” value is recorded as 5 (Herbicidal ratio of 90% or more (almost completely withered)). The “F (Digitaria ciliaris) herbicidal effect grade” value in the assay with Digitaria ciliaris is reported as 5 (Herbicidal ratio of 90% or more (almost completely withered)). In addition, the “H (Echinochloa crus-galli var. crus-galli) herbicidal effect grade” value in assay [1] is given as 5 (Herbicidal ratio of 90% or more (almost completely withered)). Besides, the “Q (Galium spurium) herbicidal effect grade” value in the assay on Galium spurium was 3 (Herbicidal ratio of 40% or more and less than 70%). Moreover, the “K (Lolium multiflorum Lam.) herbicidal effect grade” value with Lolium multiflorum Lam. is 1 (Herbicidal ratio of 5% or more and less than 20%). Moreover, the “G (Setaria viridis) herbicidal effect grade” value in the assay with Setaria viridis is listed as 5 (Herbicidal ratio of 90% or more (almost completely withered)). Further, in the assay on Veronica persica, the “R (Veronica persica) herbicidal effect grade” value is 4 (Herbicidal ratio of 70% or more and less than 90%).
For the compound `CSCCNc1nnc2c(C(=O)Nc3nnc(C)o3)ccc(C(F)(F)F)n12` [1-130], the “M (Abutilon theophrasti) herbicidal effect grade” value in the assay with Abutilon theophrasti was 3 (Herbicidal ratio of 40% or more and less than 70%). Also, the “J (Alopecurus myosuroides) herbicidal effect grade” value in the assay with Alopecurus myosuroides was 1 (Herbicidal ratio of 5% or more and less than 20%). In addition, the “N (Amaranthus retroflexus) herbicidal effect grade” value in the assay on Amaranthus retroflexus was 3 (Herbicidal ratio of 40% or more and less than 70%). In the assay on Apera spica-venti., the “L (Apera spica-venti.) herbicidal effect grade” value was 1 (Herbicidal ratio of 5% or more and less than 20%). The “I (Avena fatua) herbicidal effect grade” value with Avena fatua is 1 (Herbicidal ratio of 5% or more and less than 20%). Also, in the assay on Chenopodium album, the “O (Chenopodium album) herbicidal effect grade” value is 5 (Herbicidal ratio of 90% or more (almost completely withered)). In addition, the “F (Digitaria ciliaris) herbicidal effect grade” value in the assay with Digitaria ciliaris is 4 (Herbicidal ratio of 70% or more and less than 90%). Further, the “H (Echinochloa crus-galli var. crus-galli) herbicidal effect grade” value in assay [1] is on record as 5 (Herbicidal ratio of 90% or more (almost completely withered)). In the assay with Galium spurium, the “Q (Galium spurium) herbicidal effect grade” value is 4 (Herbicidal ratio of 70% or more and less than 90%). Besides, the “K (Lolium multiflorum Lam.) herbicidal effect grade” value with Lolium multiflorum Lam. is 1 (Herbicidal ratio of 5% or more and less than 20%). In the assay on Setaria viridis, the “G (Setaria viridis) herbicidal effect grade” value is 4 (Herbicidal ratio of 70% or more and less than 90%). For the same compound, the “R (Veronica persica) herbicidal effect grade” value with Veronica persica is 3 (Herbicidal ratio of 40% or more and less than 70%).
